Test results reported in publication PMC7351026, “Serum Half-Lives for Short- and Long-Chain Perfluoroalkyl Acids after Ceasing Exposure from Drinking Water Contaminated by Firefighting Foam” (Environmental Health Perspectives, 2020).
Where “and” joins values, the source holds several entries; their conditions need not be identical. Equal entries are not always repeated. Marks after values point to notes of the source that are not given here.

Columns and labels:
Serum/water ratio = type: in vivo, human; conditions: median serum level of first samples (26 employees) divided by airport drinking-water level
Method: The ratio of serum and water concentration for each PFAS (serum/water ratio) was calculated based on median serum level in the first serum sample obtained from all 26 airport employees divided by the drinking-water concentration. This ratio is an indicator of PFAS accumulation in body.

[1] = PFAS levels in serum samples of airport employees (LC/MS/MS); conditions: for Serum level in the first samples, median (range) / Relative composition of PFAS in serum, molar concentration basis / Relative composition of PFAS in serum, weight basis / Serum concentration, molar basis / Serum concentration, weight basis: all 26 airport employees; for Relative composition of PFAS in serum, molar concentration basis / Relative composition of PFAS in serum, weight basis: first serum samples; for Serum concentration, molar basis / Serum concentration, weight basis: median of first serum samples
Source text: All 26 employees at the airport were invited for a blood sampling between 11 and 14 September 2018 (i.e., within 11 to 14 d after the termination of contaminated drinking-water exposure). Information on age, home address, employment history, working tasks, and sick leave and vacation days in August and September were collected by questionnaire. In addition, data on the number of glasses of water consumed per day, local fish consumption, and history of blood donation and medication were collected. For female employees, questions about menstruation, pregnancy, and duration of breast-feeding were asked.
The PFAS analysis in serum from the first sampling was immediately performed and personal results were reported to the employees. […] These 17 employees submitted four rounds of blood and first morning urine samples in parallel, at 1-month intervals. In total, there were five rounds of serum sampling (started from September) and four rounds of urine sampling (from October). For modeling of elimination, all samples were reanalyzed in a single batch. We obtained 83 serum samples with a median count of 5 (range: 4–5) samples per employee, and 59 urine samples with median of 4 (range: 1–4) samples per employee. Only one employee provided a single urine sample. The study was approved by the Regional Ethical Review Board in Lund, Sweden. All employees provided written informed consent.
Venous whole blood samples were obtained and were centrifuged for 10 min at 1,500×g at room temperature to isolate the serum on site. The serum samples were collected in 6-mL BD Vacutainer® Plus plastic serum tubes without gel (BD). Urine samples were collected in 13-mL polypropylene screw cap tubes (Sarstedt). Serum and urine samples were frozen at −20°C after sampling and transported to Lund using cold chain logistics. Serum and urine samples were stored at −80°C and −20°C , respectively, before analysis.
The serum samples, QC samples, and chemical blanks were prepared in 96-well plates with 1.5-mL flat-bottom glass vials (Biotech solutions). Serum samples were thawed for 1–2 h and mixed on a vortex shaker for approximately 10 s two times. Once after all samples were thawed and a second time before pipetting the serum to the plate. Before pipetting, the tip was pre-wetted several times, drawing a volume into the tip and dispensing it back into the tube. Sample preparation procedures for serum samples consisted of 25μL serum mixed with 25μL water, 25μL methanol, 25μL isotopically labeled internal standards in 50% acetonitrile (see Table S1), and 100μL acetonitrile. Thereafter, samples were mixed vigorous by shaking for 30 min and centrifuged at 2,600×g for 10 min at room temperature. The supernatant ( 0.2mL ) was transferred to 96-well plates with 0.5-mL conical glass vials (MicroLiter Analytical Supplies) and again centrifuged at 3,000×g for 10 min before analysis. The QC samples and chemical blanks were prepared following the same procedure as the serum samples. The calibration standards were prepared in FBS the same way as the samples, except for the addition of diluted reference standards of all analyzed compounds in 25μL of the methanol solution.
Aliquots of 4μL of the sample were analyzed using LC/MS/MS. For the analysis, a C18 column ( 4μm , 2.1mm i.d.×50mm , Genesis Lightning) was used prior to the injector to filter the mobile phases. The analytical column was an Aquity BEH ( 1.7μm , 2.1mm i.d.×100mm Waters). The mobile phases (A and B) were A: 5 mM ammonium acetate in water:methanol (50:50); and B: methanol. The mobile phase was kept at 0% B for 2.5 min after injection. A gradient was then applied over 11 min to 90% B, where it was then kept for 1.5 min. The column was then conditioned at 0% B for 2 min.

[2] = 1st sampling (September 2018), count 17
[3] = 2nd sampling (October 2018), count 17
[4] = 3rd sampling (November, 2018), count 17
[5] = 4th sampling (December 2018), count 16
[6] = 5th sampling (January 2019), count 16
[7] = employees participated in first blood sampling and repeated blood and urine sampling, N=17
[8] = employees participated in first blood sampling only, N=9, 11-14 d after end of exposure

O=S(=O)(O)C(F)(F)C(F)(F)C(F)(F)C(F)(F)F [PFBS, perfluorobutane sulfonic acid]
Serum/water ratio (Serum/water ratio): 1.65 | Serum PFAS level, 25 percentile [1, 2]: 0.32 | Serum PFAS level, 75 percentile [1, 2]: 0.68 | Serum PFAS level, Max [1, 2]: 1.3 | Serum PFAS level, Median [1, 2]: 0.46 | Serum PFAS level, Min [1, 2]: 0.22 | Serum PFAS level, 25 percentile [1, 3]: 0.11 | Serum PFAS level, 75 percentile [1, 3]: 0.31 | Serum PFAS level, Max [1, 3]: 0.70 | Serum PFAS level, Median [1, 3]: 0.17 | Serum PFAS level, Min [1, 3]: < LOD | Serum PFAS level, 25 percentile [1, 4]: < LOD | Serum PFAS level, 75 percentile [1, 4]: 0.28 | Serum PFAS level, Max [1, 4]: 0.65 | Serum PFAS level, Median [1, 4]: 0.09 | Serum PFAS level, Min [1, 4]: < LOD | Serum PFAS level, 25 percentile [1, 5]: < LOD | Serum PFAS level, 75 percentile [1, 5]: 0.24 | Serum PFAS level, Max [1, 5]: 0.52 | Serum PFAS level, Median [1, 5]: 0.08 | Serum PFAS level, Min [1, 5]: < LOD | Serum PFAS level, 25 percentile [1, 6]: < LOD | Serum PFAS level, 75 percentile [1, 6]: 0.11 | Serum PFAS level, Max [1, 6]: 0.30 | Serum PFAS level, Median [1, 6]: 0.06 | Serum PFAS level, Min [1, 6]: < LOD | Serum level in the first samples, median (range) [1]: 0.33 ( <LOD –1.3) ng/mL | PFAS in first serum sample, median (range) [1, 7]: 0.46 ng/mL and 0.46 (0.22–1.3) ng/mL | PFAS in first serum sample, median (range) [1, 8]: 0.10 ( <LOD –1.0)^d ng/mL | Initial serum PFAS level, max ([1]; females (N=7)): 1.3 ng/mL | Initial serum PFAS level, median ([1]; females (N=7)): 0.39 ng/mL | Initial serum PFAS level, min ([1]; females (N=7)): 0.06 ng/mL | Relative composition of PFAS in serum, molar concentration basis [1]: 0.4% | Relative composition of PFAS in serum, weight basis [1]: 0.3% | Initial serum PFAS level, Max ([1]; males (N=19)): 1.1 ng/mL | Initial serum PFAS level, Min ([1]; males (N=19)): < LOD | Initial serum PFAS level, median ([1]; males (N=19)): 0.32 ng/mL | Serum concentration, molar basis [1]: 0.0011 | Serum concentration, weight basis [1]: 0.33

O=C(O)C(F)(F)C(F)(F)C(F)(F)C(F)(F)C(F)(F)F [PFHxA, perfluorohexanoic acid]
Serum/water ratio (Serum/water ratio): 1.15 | Serum PFAS level, 25 percentile [1, 2]: 0.24 | Serum PFAS level, 75 percentile [1, 2]: 0.48 | Serum PFAS level, Max [1, 2]: 0.92 | Serum PFAS level, Median [1, 2]: 0.37 | Serum PFAS level, Min [1, 2]: 0.16 | Serum PFAS level, 25 percentile [1, 3]: 0.26 | Serum PFAS level, 75 percentile [1, 3]: 0.51 | Serum PFAS level, Max [1, 3]: 1.2 | Serum PFAS level, Median [1, 3]: 0.31 | Serum PFAS level, Min [1, 3]: 0.14 | Serum PFAS level, 25 percentile [1, 4]: 0.27 | Serum PFAS level, 75 percentile [1, 4]: 0.56 | Serum PFAS level, Max [1, 4]: 1.4 | Serum PFAS level, Median [1, 4]: 0.34 | Serum PFAS level, Min [1, 4]: 0.13 | Serum PFAS level, 25 percentile [1, 5]: 0.22 | Serum PFAS level, 75 percentile [1, 5]: 0.46 | Serum PFAS level, Max [1, 5]: 0.87 | Serum PFAS level, Median [1, 5]: 0.30 | Serum PFAS level, Min [1, 5]: 0.08 | Serum PFAS level, 25 percentile [1, 6]: 0.21 | Serum PFAS level, 75 percentile [1, 6]: 0.52 | Serum PFAS level, Max [1, 6]: 1.2 | Serum PFAS level, Median [1, 6]: 0.33 | Serum PFAS level, Min [1, 6]: 0.11 | Serum level in the first samples, median (range) [1]: 0.38 (0.16–1.1) ng/mL | PFAS in first serum sample, median (range) [1, 7]: 0.37 (0.16–0.92) ng/mL | PFAS in first serum sample, median (range) [1, 8]: 0.38 (0.23–1.1) ng/mL | Initial serum PFAS level, max ([1]; females (N=7)): 0.54 ng/mL | Initial serum PFAS level, median ([1]; females (N=7)): 0.24 ng/mL | Initial serum PFAS level, min ([1]; females (N=7)): 0.19 ng/mL | Relative composition of PFAS in serum, molar concentration basis [1]: 0.4% | Relative composition of PFAS in serum, weight basis [1]: 0.3% | Initial serum PFAS level, Max ([1]; males (N=19)): 1.1 ng/mL | Initial serum PFAS level, Min ([1]; males (N=19)): 0.16 ng/mL | Initial serum PFAS level, median ([1]; males (N=19)): 0.42 ng/mL | Serum concentration, molar basis [1]: 0.0012 | Serum concentration, weight basis [1]: 0.38

O=S(=O)(O)C(F)(F)C(F)(F)C(F)(F)C(F)(F)C(F)(F)C(F)(F)C(F)(F)F [PFHpS, perfluoroheptane sulfonic acid]
Serum/water ratio (Serum/water ratio): 81.3 | Serum PFAS level, 25 percentile [1, 2]: 0.96 | Serum PFAS level, 75 percentile [1, 2]: 2.5 | Serum PFAS level, Max [1, 2]: 6.2 | Serum PFAS level, Median [1, 2]: 1.6 | Serum PFAS level, Min [1, 2]: 0.49 | Serum PFAS level, 25 percentile [1, 3]: 0.95 | Serum PFAS level, 75 percentile [1, 3]: 2.1 | Serum PFAS level, Max [1, 3]: 6.1 | Serum PFAS level, Median [1, 3]: 1.5 | Serum PFAS level, Min [1, 3]: 0.45 | Serum PFAS level, 25 percentile [1, 4]: 0.94 | Serum PFAS level, 75 percentile [1, 4]: 1.9 | Serum PFAS level, Max [1, 4]: 6.3 | Serum PFAS level, Median [1, 4]: 1.4 | Serum PFAS level, Min [1, 4]: 0.47 | Serum PFAS level, 25 percentile [1, 5]: 0.93 | Serum PFAS level, 75 percentile [1, 5]: 2.1 | Serum PFAS level, Max [1, 5]: 5.9 | Serum PFAS level, Median [1, 5]: 1.5 | Serum PFAS level, Min [1, 5]: 0.35 | Serum PFAS level, 25 percentile [1, 6]: 1.1 | Serum PFAS level, 75 percentile [1, 6]: 2.2 | Serum PFAS level, Max [1, 6]: 6.2 | Serum PFAS level, Median [1, 6]: 1.5 | Serum PFAS level, Min [1, 6]: 0.45 | Serum level in the first samples, median (range) [1]: 1.3 (0.28–6.2) ng/mL | PFAS in first serum sample, median (range) [1, 7]: 1.6 (0.49–6.2) ng/mL | PFAS in first serum sample, median (range) [1, 8]: 0.97 (0.28–1.9) ng/mL | Initial serum PFAS level, max ([1]; females (N=7)): 2.2 ng/mL | Initial serum PFAS level, median ([1]; females (N=7)): 1.1 ng/mL | Initial serum PFAS level, min ([1]; females (N=7)): 0.49 ng/mL | Relative composition of PFAS in serum, molar concentration basis [1]: 1.1% | Relative composition of PFAS in serum, weight basis [1]: 1.2% | Initial serum PFAS level, Max ([1]; males (N=19)): 6.2 ng/mL | Initial serum PFAS level, Min ([1]; males (N=19)): 0.28 ng/mL | Initial serum PFAS level, median ([1]; males (N=19)): 1.4 ng/mL | Serum concentration, molar basis [1]: 0.0029 | Serum concentration, weight basis [1]: 1.3
